ChEMBL document CHEMBL4118127, “Structure activity relationship studies on rhodanines and derived enethiol inhibitors of metallo-β-lactamases” (Bioorg Med Chem, 2018)
Activity calls are given as the source filed them.

How the values were obtained:
[1] = target: Beta-lactamase TEM (Bacteria) (UniProt P62593); assay: Inhibition of recombinant N-terminal His-tagged Escherichia coli TEM1 (24 to 286 residues) expressed in Escherichia coli BL21(DE3) at 200 uM using FC5 as substrate
[2] = target: Beta-lactamase CTX-M (Escherichia coli) (UniProt Q9EXV5); assay: Inhibition of recombinant Escherichia coli EO516 N-terminal His6-tagged CTX-M using FC5 as substrate at 200 uM preincubated at 10 to 300 mins followed by substrate addition
[3] = target: Beta-lactamase (Escherichia coli K-12) (UniProt P00811); assay: Inhibition of recombinant Escherichia coli AmpC at 200 uM using FC5 as substrate preincubated at 10 to 300 mins followed by substrate addition
[4] = target: Beta-lactamase OXA-10 (Pseudomonas aeruginosa) (UniProt P14489); assay: Inhibition of recombinant Pseudomonas aeruginosa OXA-10 at 200 uM using FC5 as substrate

Measured: inhibition

Chain of Beta-lactamase OXA-10 (Pseudomonas aeruginosa) (P14489 whole entry): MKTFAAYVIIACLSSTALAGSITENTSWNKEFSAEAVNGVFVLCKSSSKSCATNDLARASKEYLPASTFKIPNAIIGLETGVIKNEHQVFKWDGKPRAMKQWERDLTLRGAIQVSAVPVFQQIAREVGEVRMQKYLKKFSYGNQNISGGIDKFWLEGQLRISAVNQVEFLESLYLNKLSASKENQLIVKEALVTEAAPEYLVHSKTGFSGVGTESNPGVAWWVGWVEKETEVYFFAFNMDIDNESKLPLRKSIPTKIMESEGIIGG
Chain of Beta-lactamase (Escherichia coli K-12) (P00811 whole entry): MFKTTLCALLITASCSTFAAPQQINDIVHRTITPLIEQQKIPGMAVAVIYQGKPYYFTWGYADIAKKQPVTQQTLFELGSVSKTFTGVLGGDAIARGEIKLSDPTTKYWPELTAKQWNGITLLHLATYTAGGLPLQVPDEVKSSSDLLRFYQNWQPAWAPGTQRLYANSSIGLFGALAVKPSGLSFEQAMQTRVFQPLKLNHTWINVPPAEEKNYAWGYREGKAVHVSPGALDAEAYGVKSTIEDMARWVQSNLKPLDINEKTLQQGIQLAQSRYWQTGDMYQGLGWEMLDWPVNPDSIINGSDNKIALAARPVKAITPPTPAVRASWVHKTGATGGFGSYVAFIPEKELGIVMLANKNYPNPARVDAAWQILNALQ
Chain of Beta-lactamase TEM (Bacteria) (P62593 whole entry, the tested form may be a part): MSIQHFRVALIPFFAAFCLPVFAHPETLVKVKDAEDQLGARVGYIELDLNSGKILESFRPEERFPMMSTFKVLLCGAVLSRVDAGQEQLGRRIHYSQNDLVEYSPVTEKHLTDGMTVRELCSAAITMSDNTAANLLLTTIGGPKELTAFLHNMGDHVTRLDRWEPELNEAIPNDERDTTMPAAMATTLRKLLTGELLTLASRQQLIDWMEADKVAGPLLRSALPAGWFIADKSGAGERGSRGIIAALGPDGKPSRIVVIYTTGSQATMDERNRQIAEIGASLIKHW

O=C(O)/C(S)=C/c1cccc(Cl)c1Cl
inactive: all assays above

CN1CCN(NC(=O)CN2C(=O)/C(=C/c3csc4ccccc34)SC2=S)CC1
inactive: all assays above

O=C(O)CN1C(=O)/C(=C/c2csc3ccccc23)SC1=S
inactive: all assays above

O=C(O)/C(S)=C/c1cc(Cl)ccc1Cl
inactive: all assays above

CN1CCN(NC(=O)CN2C(=O)/C(=C/c3ccccc3Br)SC2=S)CC1
inactive: all assays above

Cc1ccc(/C=C(\S)C(=O)O)cc1
inactive: all assays above

Cc1ccc(/C=C2\SC(=S)N(CC(=O)O)C2=O)cc1
inactive: all assays above

CN1CCN(NC(=O)CN2C(=O)/C(=C/c3ccccc3I)SC2=S)CC1
inactive: all assays above

CN1CCN(NC(=O)CN2C(=O)/C(=C/c3c(Cl)cccc3Cl)SC2=S)CC1
inactive: all assays above

CN1CCN(NC(=O)CN2C(=O)/C(=C/c3ccccc3Cl)SC2=S)CC1
inactive: all assays above

O=C(O)CN1C(=O)/C(=C/c2c(F)cccc2F)SC1=S
inactive: all assays above

O=C(O)CN1C(=O)/C(=C/c2ccccc2Br)SC1=S
inactive: all assays above

CN1CCN(NC(=O)CN2C(=O)/C(=C/c3ccc(F)cc3)SC2=S)CC1
inactive: all assays above

O=C(O)CN1C(=O)/C(=C/c2ccccc2)SC1=S
inactive: all assays above

O=C(O)/C(S)=C/c1ccccc1F
inactive: all assays above

O=C(O)CN1C(=O)/C(=C/c2c(F)ccc(F)c2F)SC1=S
inactive: all assays above

O=C(O)/C(S)=C/c1c(F)cccc1Cl
inactive: all assays above

O=C(O)/C(S)=C/c1ccccc1Br
inactive: all assays above

O=C(O)CN1C(=O)/C(=C/c2cccc(Cl)c2Cl)SC1=S
inactive: all assays above

O=C(O)/C(S)=C/c1ccc(F)cc1
inactive: all assays above

O=C(O)/C(S)=C/c1c(F)ccc(F)c1F
inactive: all assays above

O=C(O)CN1C(=O)/C(=C/c2c(F)cccc2Cl)SC1=S
inactive: all assays above

Cc1cccc(C)c1/C=C1\SC(=S)N(CC(=O)O)C1=O
inactive: all assays above

O=C(O)/C(S)=C/c1ccc(Br)cc1
inactive: all assays above

CN1CCN(NC(=O)CN2C(=O)/C(=C/c3cccc(Cl)c3Cl)SC2=S)CC1
inactive: all assays above

Cc1ccc(/C=C2\SC(=S)N(CC(=O)NN3CCN(C)CC3)C2=O)cc1
inactive: all assays above

CN1CCN(NC(=O)CN2C(=O)/C(=C/c3c(F)cccc3Cl)SC2=S)CC1
inactive: all assays above

O=C(O)/C(S)=C/c1c(F)cccc1F
inactive: all assays above

CN1CCN(NC(=O)CN2C(=O)/C(=C/c3cc(Cl)ccc3Cl)SC2=S)CC1
inactive: all assays above

CN1CCN(NC(=O)CN2C(=O)/C(=C/c3c(Cl)ccc(Cl)c3Cl)SC2=S)CC1
inactive: all assays above

CN1CCN(NC(=O)CN2C(=O)/C(=C/c3ccccc3)SC2=S)CC1
inactive: all assays above

O=C(O)CN1C(=O)/C(=C/c2c(Cl)cccc2Cl)SC1=S
inactive: all assays above

Cc1cccc(C)c1/C=C(\S)C(=O)O
inactive: all assays above

O=C(O)/C(S)=C/c1ccccc1Cl
inactive: all assays above

O=C(O)CN1C(=O)/C(=C/c2ccccc2Cl)SC1=S
inactive: all assays above

COc1ccc(/C=C2\SC(=S)N(CC(=O)NN3CCN(C)CC3)C2=O)cc1
inactive: all assays above

O=C(O)CN1C(=O)/C(=C/c2ccc(F)cc2)SC1=S
inactive: all assays above

O=C(O)CN1C(=O)/C(=C/c2ccccc2F)SC1=S
inactive: all assays above
